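Dose response: 5 concentrations. Exposure: 48 h. Format: 96-well plates. Endpoint: linear interpolation; highest concentration if not reached. Here, GI50 denotes the concentration required for 50% inhibition of growth.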 Calls of active or inactive are those of the source. Rule as the data show it: active = GI50 up to about 1.1 µM and inactive = higher.
Experiments:
Assay in all cases: NCI tumour cell line growth inhibition, 48 h
DLD-1 = system: DLD-1
DMS-273 = system: DMS-273
RXF 631 = system: RXF 631
SNB-78 = system: SNB-78
XF498 = system: XF498
HOP-18 = system: HOP-18
M19-MEL = system: M19-MEL
MDA-N = system: MDA-N

Measured: GI50

CC1=C(C(=O)CC(=O)C(=O)Nc2ccccc2C(F)(F)F)Sc2ccccc2N1
inactive: DLD-1 76 µM | DMS-273 40.2 µM | RXF 631 86.5 µM | SNB-78 47.3 µM | XF498 31.5 µM

CC12C/C(=C\c3ccccc3)C(=O)C3C1CCCC32
inactive: DLD-1 79.3 µM | DMS-273 42.6 µM | HOP-18 > 100 µM | M19-MEL 58.6 µM | RXF 631 > 100 µM | XF498 > 100 µM

O=C(CC1(O)C(=O)Nc2c(Cl)cc(Cl)cc21)c1cccc2ccccc12 (stereo not drawn)
inactive: DLD-1 15.8 µM | DMS-273 13.7 µM | HOP-18 17.9 µM | RXF 631 18.1 µM | SNB-78 26.7 µM | XF498 20.4 µM

O=c1c2cc(Br)cc(Br)c2nc(CCCl)n1CCO
inactive: DLD-1 > 100 µM | M19-MEL 94.8 µM | RXF 631 > 100 µM | SNB-78 > 100 µM | XF498 41.7 µM

N#Cc1cc([N+](=O)[O-])ccc1NC(=O)C(=O)Nc1n[nH]c(N)n1
inactive: DLD-1 > 100 µM | DMS-273 > 100 µM | M19-MEL > 100 µM | RXF 631 > 100 µM | SNB-78 > 100 µM | XF498 > 100 µM

CCOC(=O)C/C(N)=C(\C#N)C(=O)OCC
inactive: DLD-1 > 100 µM | DMS-273 > 100 µM | HOP-18 > 100 µM | M19-MEL > 100 µM | RXF 631 > 100 µM | SNB-78 > 100 µM | XF498 > 100 µM

CCOC(OC(C)=O)[C@@H]1C=C[C@H](C)N(c2ccc([N+](=O)[O-])cc2)O1 (stereo partly drawn)
inactive: DLD-1 2.59 µM | DMS-273 3.19 µM | HOP-18 8.79 µM | M19-MEL 2.14 µM | RXF 631 4.98 µM | SNB-78 7.48 µM | XF498 14.6 µM

Nc1ccccc1C(=O)/C=C/c1ccccc1O
inactive: DLD-1 47.2 µM | HOP-18 8.34 µM | M19-MEL 72.3 µM | RXF 631 55.8 µM | SNB-78 41.5 µM | XF498 > 100 µM

O=C(C=C1SCCS1)/C=C\c1ccc(Cl)cc1
inactive: DLD-1 > 100 µM | DMS-273 99.3 µM | M19-MEL > 100 µM | RXF 631 > 100 µM | SNB-78 > 100 µM | XF498 73.8 µM

CC(=O)O[C@H]1CCC2[C@@H]3CC[C@]4(C)CC(=O)C=C[C@]4(C)C3CC[C@@]21C (stereo partly drawn)
inactive: DLD-1 22.6 µM | DMS-273 17.7 µM | HOP-18 > 38.8 µM | M19-MEL 18.8 µM | MDA-N 26.4 µM | RXF 631 > 50.9 µM | SNB-78 14.9 µM

Cn1c(=O)c2ccc(-c3ccc(Br)cc3)nc2n(C)c1=O
inactive: DLD-1 > 100 µM | DMS-273 > 100 µM | HOP-18 > 100 µM | M19-MEL > 100 µM | RXF 631 > 100 µM | SNB-78 85.3 µM | XF498 > 100 µM

Source: ChEMBL document CHEMBL1201862, “PubChem BioAssay data set” (2004)
